In ChEMBL document CHEMBL1201862, “PubChem BioAssay data set” (2004):
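Cultured in 96-well plates, cells were exposed to test compound for 48 hours across five concentrations. GI50 = concentration required for 50% inhibition of growth.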 Active and inactive are the calls of the source. Rule as the data show it: active = GI50 up to about 1.1 µM and inactive = higher. Starred links: 1 amine or outer side, 2 acyl side, 3 side chain; linkers in the order of their positions; H or OH if unused. Positions of bridges follow the written chain, without caps; N, C: chain ends. Non-standard residues stand in square brackets, D forms with d. Residues, ends and D or L forms follow the SMILES beside them. Chains are numbered I, II in the order given. Actinocin(1to9) = Cc1c2oc3c(C)ccc(C(=O)[*:2])c3nc-2c(C(=O)[*:1])c(N)c1=O; NMeV = CN[CH](C(=O)O)C(C)C; Sar = CNCC(=O)O

Experiments:
Experiment in all cases: growth of human tumour cells (NCI), 48 h
BT-549 = system: BT-549
MDA-N = system: MDA-N
SK-MEL-28 = system: SK-MEL-28
PC-3 = system: PC-3
TK-10 = system: TK-10
SK-MEL-5 = system: SK-MEL-5
OVCAR-5 = system: OVCAR-5
MDA-MB-435 = system: MDA-MB-435
T47D = system: T47D
RXF 393 = system: RXF 393
COLO 205 = system: COLO 205
EKVX = system: EKVX
A549 = system: A549
HCT-116 = system: HCT-116
786-0 = system: 786-0
UACC-257 = system: UACC-257
OVCAR-3 = system: OVCAR-3
HCT-15 = system: HCT-15
CAKI-1 = system: CAKI-1
DLD-1 = system: DLD-1

SMILES | GI50 (BT-549) | GI50 (MDA-N) | GI50 (SK-MEL-28) | GI50 (PC-3) | GI50 (TK-10) | GI50 (SK-MEL-5) | GI50 (OVCAR-5) | GI50 (MDA-MB-435) | GI50 (T47D) | GI50 (RXF 393) | GI50 (COLO 205) | GI50 (EKVX) | GI50 (A549) | GI50 (HCT-116) | GI50 (786-0) | GI50 (UACC-257) | GI50 (OVCAR-3) | GI50 (HCT-15) | GI50 (CAKI-1) | GI50 (DLD-1)
COc1c(C(CC(C)C)OC(C)=O)ccc2c1C(=O)OCc1cc(C)cc(O)c1O2 (stereo unspecified) | 16.2 µM (inactive) | 15.1 µM (inactive) | 15.8 µM (inactive) | 9.73 µM (inactive) | 17.7 µM (inactive) | 11.1 µM (inactive) | 15.1 µM (inactive) | 13.7 µM (inactive) | 11.3 µM (inactive) | 18.2 µM (inactive) | 17.6 µM (inactive) | 11.8 µM (inactive) | 12.4 µM (inactive) | 12.6 µM (inactive) | 15.5 µM (inactive) | 8.47 µM (inactive) | 10.5 µM (inactive) | 10.1 µM | 16.1 µM (inactive) | –
O=C1OC(=O)C2C1C1C(c3ccccc3)=C(c3ccccc3)C2(O)C2C(=O)OC(=O)C12 (stereo unspecified) | – | – | 98.4 µM (inactive) | – | > 100 µM (inactive) | – | > 100 µM (inactive) | – | – | – | > 100 µM (inactive) | > 100 µM (inactive) | > 100 µM (inactive) | 54.8 µM (inactive) | 92.3 µM (inactive) | > 100 µM (inactive) | > 100 µM (inactive) | > 100 µM | > 100 µM (inactive) | 91 µM (inactive)
CC(C)(C)/C(O)=C\c1nc2cc(C(F)(F)F)ccc2[nH]c1=O | > 100 µM (inactive) | > 100 µM (inactive) | > 100 µM (inactive) | > 100 µM (inactive) | > 100 µM (inactive) | > 100 µM (inactive) | > 100 µM (inactive) | > 100 µM (inactive) | > 100 µM (inactive) | > 100 µM (inactive) | > 100 µM (inactive) | > 100 µM (inactive) | > 100 µM (inactive) | > 100 µM (inactive) | > 100 µM (inactive) | > 100 µM (inactive) | > 100 µM (inactive) | > 100 µM | > 100 µM (inactive) | –
CCCCCCCCCC1CC(=O)NCC(=O)NC(C(C)C)C(=O)NC(CC(C)C)C(=O)NC(C)C(=O)NC(C(C)C)C(=O)O1 (stereo unspecified) | 11.4 µM (inactive) | 17.1 µM (inactive) | 15.2 µM (inactive) | 6.9 µM (inactive) | 24.3 µM (inactive) | 17.3 µM (inactive) | 38.4 µM (inactive) | 10.4 µM (inactive) | 20.5 µM (inactive) | 35.3 µM (inactive) | 50.4 µM (inactive) | 21.5 µM (inactive) | 17.2 µM (inactive) | 14.8 µM (inactive) | 12.2 µM (inactive) | 38.8 µM (inactive) | 9.59 µM (inactive) | > 100 µM | > 100 µM (inactive) | –
O=C(NCc1ccccc1)c1cc2ccccc2o/c1=N\c1cccc(C(F)(F)F)c1 | > 100 µM (inactive) | 54.8 µM (inactive) | > 100 µM (inactive) | 44.3 µM (inactive) | 50.4 µM (inactive) | 26.4 µM (inactive) | > 100 µM (inactive) | 46 µM (inactive) | 28.1 µM (inactive) | 78 µM (inactive) | 29.3 µM (inactive) | > 100 µM (inactive) | 47.1 µM (inactive) | 55.6 µM (inactive) | 29.8 µM (inactive) | 29.5 µM (inactive) | 67.3 µM (inactive) | 36.9 µM | > 100 µM (inactive) | –
CC(C)=c1sc(=C(C)C)c2c1=NC(C)(C)N=2 | 67.3 µM (inactive) | 65.6 µM (inactive) | 73.6 µM (inactive) | 45.9 µM (inactive) | > 100 µM (inactive) | 79.6 µM (inactive) | 36.5 µM (inactive) | > 100 µM (inactive) | 52.8 µM (inactive) | > 100 µM (inactive) | 87.3 µM (inactive) | 57.9 µM (inactive) | 51.5 µM (inactive) | 50.5 µM (inactive) | > 100 µM (inactive) | 30.9 µM (inactive) | 72.6 µM (inactive) | 47.8 µM | 77.1 µM (inactive) | –
Cc1cc(C)nc(NS(=O)(=O)c2ccc(NC(=O)c3ccc4nc5ccccc5c(Nc5ccc(S(=O)(=O)N=C(N)N)cc5)c4c3)cc2)n1 | > 100 µM (inactive) | > 100 µM (inactive) | > 100 µM (inactive) | > 100 µM (inactive) | > 100 µM (inactive) | > 100 µM (inactive) | > 100 µM (inactive) | > 100 µM (inactive) | > 100 µM (inactive) | > 100 µM (inactive) | > 100 µM (inactive) | > 100 µM (inactive) | > 100 µM (inactive) | > 100 µM (inactive) | > 100 µM (inactive) | > 100 µM (inactive) | > 100 µM (inactive) | > 100 µM | > 100 µM (inactive) | –
CSC(SC)=C(C#N)C(=O)Nc1ccc(C)cc1 | > 100 µM (inactive) | > 100 µM (inactive) | > 100 µM (inactive) | > 100 µM (inactive) | > 100 µM (inactive) | > 100 µM (inactive) | > 100 µM (inactive) | > 100 µM (inactive) | > 100 µM (inactive) | > 100 µM (inactive) | > 100 µM (inactive) | > 100 µM (inactive) | > 100 µM (inactive) | 49.5 µM (inactive) | > 100 µM (inactive) | > 100 µM (inactive) | > 100 µM (inactive) | > 100 µM | 42.8 µM (inactive) | –
CCOC(=O)NNC1(SC)NC(=O)c2c(cc(Cl)oc2=O)O1 (stereo unspecified) | 4.37 µM (inactive) | 2.58 µM (inactive) | 3.08 µM (inactive) | 3.4 µM (inactive) | 3.55 µM (inactive) | 5.16 µM (inactive) | 11.5 µM (inactive) | 4.83 µM (inactive) | 6.85 µM (inactive) | 3.14 µM (inactive) | 6.93 µM (inactive) | 6.85 µM (inactive) | 8.11 µM (inactive) | 1.46 µM (inactive) | 1.92 µM (inactive) | 7.26 µM (inactive) | 2.84 µM (inactive) | 2.17 µM | 2.72 µM (inactive) | –
O=C1C=CC(=O)c2c1ccc1c3ccccc3n(-c3ccccn3)c21 | – | – | > 100 µM (inactive) | – | 16.7 µM (inactive) | – | > 100 µM (inactive) | – | – | – | 14.2 µM (inactive) | 13.8 µM (inactive) | > 100 µM (inactive) | 13.2 µM (inactive) | 15.2 µM (inactive) | 18.5 µM (inactive) | 24.7 µM (inactive) | 19.1 µM | – | 16.5 µM (inactive)
CCOc1ccc2c(c1)[n+]([O-])c(-c1ccc(Br)cc1)c(N)[n+]2[O-] | – | – | 30.9 µM (inactive) | – | > 100 µM (inactive) | 20.8 µM (inactive) | > 100 µM (inactive) | – | – | – | 24.2 µM (inactive) | 52.8 µM (inactive) | 59.6 µM (inactive) | – | > 100 µM (inactive) | 59.4 µM (inactive) | 48.1 µM (inactive) | 47 µM | 27.2 µM (inactive) | 99.5 µM (inactive)
CNC(=O)N(CCC#N)CCCN(C(=O)NC)c1ccccc1 | > 100 µM (inactive) | > 100 µM (inactive) | > 100 µM (inactive) | > 100 µM (inactive) | > 100 µM (inactive) | > 100 µM (inactive) | > 100 µM (inactive) | > 100 µM (inactive) | > 100 µM (inactive) | > 100 µM (inactive) | > 100 µM (inactive) | > 100 µM (inactive) | > 100 µM (inactive) | > 100 µM (inactive) | > 100 µM (inactive) | > 100 µM (inactive) | > 100 µM (inactive) | > 100 µM | > 100 µM (inactive) | –
O=C1CC(n2cccc2)c2c(Br)sc(Br)c21 (stereo unspecified) | 18.6 µM (inactive) | 16.3 µM (inactive) | 20.3 µM (inactive) | 16.4 µM (inactive) | 19.2 µM (inactive) | 16 µM (inactive) | 17.7 µM (inactive) | 14.4 µM (inactive) | 18.1 µM (inactive) | 20.6 µM (inactive) | 16.9 µM (inactive) | 16 µM (inactive) | 21 µM (inactive) | 15.3 µM (inactive) | 18.3 µM (inactive) | 15.1 µM (inactive) | 15.8 µM (inactive) | 12.8 µM | 6.49 µM (inactive) | –
COC(=O)C1=C(C(=O)OC)C2(C(=O)OC)OC1(OC)C(C1(C(=O)OC)C(C(=O)OC)=C1C(=O)OC)=C2C(=O)OC (stereo unspecified) | – | – | > 100 µM (inactive) | – | > 100 µM (inactive) | > 100 µM (inactive) | > 100 µM (inactive) | – | – | > 100 µM (inactive) | > 100 µM (inactive) | > 100 µM (inactive) | > 100 µM (inactive) | > 100 µM (inactive) | > 100 µM (inactive) | > 100 µM (inactive) | > 100 µM (inactive) | > 100 µM | – | > 100 µM (inactive)
CCC(C)C1NC(=O)C(NC(=O)c2c3nc4c(C(=O)NC5C(=O)NC(C(C)CC)C(=O)N6CCCC6C(=O)N(C)CC(=O)N(C)C(C(C)C)C(=O)OC5C)ccc(C)c4oc-3c(C)c(=O)c2N)C(C)OC(=O)C(C(C)C)N(C)C(=O)CN(C)C(=O)C2CCCN2C1=O (stereo unspecified) (I: TIP[Sar][NMeV] / II: TIP[Sar][NMeV]; ester I:1-I:C, II:1-II:C; linker I:N-II:N via Actinocin(1to9); configuration not given here) | 0.0105 µM (active) | < 0.01 µM (active) | 0.00011 µM (active) | 0.000895 µM (active) | 0.0147 µM (active) | 0.000198 µM (active) | 0.00459 µM (active) | 0.000539 µM (active) | 0.00173 µM (active) | 0.00394 µM (active) | < 0.0001 µM (active) | 0.0145 µM (active) | 0.000753 µM (active) | < 0.0001 µM (active) | 0.000195 µM (active) | < 0.0001 µM (active) | 0.00184 µM (active) | 0.0172 µM | 0.0059 µM (active) | –
